What was measured:
[1] = target: T1, CD38 cyclase (Homo sapiens, UniProt P28907); test: CD38 cyclase activity, fluorometric assay with NGD+ as substrate; type: biochemical; settings: for remaining activity at 50 µM: read-out: % cyclase activity remaining (50 μM)
T1 sequence (P28907 1-300): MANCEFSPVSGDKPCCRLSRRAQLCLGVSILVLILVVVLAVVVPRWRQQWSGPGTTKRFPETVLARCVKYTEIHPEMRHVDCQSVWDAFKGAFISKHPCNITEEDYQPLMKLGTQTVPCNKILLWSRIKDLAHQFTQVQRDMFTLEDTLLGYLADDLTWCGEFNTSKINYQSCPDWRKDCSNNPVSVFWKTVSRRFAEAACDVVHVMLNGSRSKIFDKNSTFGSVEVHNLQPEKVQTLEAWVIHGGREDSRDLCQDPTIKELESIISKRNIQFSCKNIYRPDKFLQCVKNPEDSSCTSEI

[2] = target: T2, CD38 hydrolase (Homo sapiens, UniProt P28907); test: CD38 hydrolase activity, fluorometric assay with ε-NAD+ as substrate; type: biochemical; settings: hydrolase versus cyclase screen
T2 sequence (P28907 1-300): T1 sequence (P28907 1-300)

[3] = test system: PBMCs; test: Cytokine analysis; type: cell-based; settings: 1.0 μM, 48 hours, activated PBMCs from 3 donors

IC50 [1] [µM] | remaining activity at 50 µM [1] [%] | Compound | selectivity between hydrolase and cyclase activity (in words) [2] | increase in IFNγ (in words) [3]
> 100 | 77.3 ± 22.4 | O=C1NC(=S)S/C1=C\c1ccc2oc3ccccc3c2c1 [Compound 26] |  | 
56 | 68.3 ± 18.2 | O=C1NC(=S)S/C1=C\c1ccc2ncccc2c1 [Compound 25] |  | 
11.5 | 22.1 ± 4 | CS(=O)(=O)c1ccc(/C=C2\SC(=S)NC2=O)cc1 [Compound 21] |  | 
> 100 | 96.3 ± 6.8 | O=C1NC(=S)S/C1=C\c1ccc2c(c1)-c1ccccc1C2 [Compound 31] |  | 
> 100 | 98.6 ± 4.7 | Cc1ccc(-c2cccc(/C=C3\SC(=S)NC3=O)c2)cc1 [Compound 29] |  | 
> 100 | 88.2 ± 0.6 | O=C1NC(=S)S/C1=C\c1ccc(Oc2ccccc2)cc1 [Compound 27] |  | 
 | 22.1 ± 14.3 | O=C1NC(=S)S/C1=C\c1ccc(-c2ccccc2)cc1 [Compound 40] |  | 
10 | 39.4 ± 4.9 | Cc1ccc(-c2ccc(/C=C3\SC(=S)NC3=O)cc2)cc1 [Compound 33] |  | 
53.8 | 55.7 ± 2.3 | COc1ccc(-c2ccc(/C=C3\SC(=S)NC3=O)cc2)cc1 [Compound 45] |  | 
4.65 | 9.3 ± 0.8 | O=C1NC(=S)S/C1=C\c1ccc(C(F)(F)F)cc1 [Compound 23] |  | more effective than 78c
> 100 | 84.5 ± 8.5 | O=C1NC(=S)S/C1=C\c1ccc(OCc2ccccc2)cc1 [Compound 38] |  | 
56 | 66.3 ± 23.4 | O=C1NC(=S)S/C1=C\c1ccc(-c2ccccn2)cc1 [Compound 34] |  | 
> 100 | 84.5 ± 2.2 | Cc1ccc(-c2ccc(/C=C3\SC(=O)NC3=O)cc2)cc1 [Compound 37] |  | 
3.15 | 64.5 ± 4.2 | O=C1NC(=S)S/C1=C\c1ccc(-c2ccc(C(F)(F)F)cc2)cc1 [Compound 32] |  | more effective than 78c

Further lines, the compound ahead of its results:

Compound | IC50 [1] [µM] | remaining activity at 50 µM [1] [%] | selectivity between hydrolase and cyclase activity (in words) [2] | increase in IFNγ (in words) [3]
COc1ccc2cc(/C=C3\SC(=S)NC3=O)ccc2c1 [Compound 36] | > 100 | 90 ± 5.4 |  | 
O=C1NC(=S)S/C1=C\c1ccc(OC(F)(F)F)cc1 [Compound 22] | 4.81 | 21.7 ± 8.1 |  | 
COc1cc(/C=C2\SC(=S)NC2=O)cc(OC)c1OC [Compound 39] | 68.6 | 64.1 ± 7.2 |  | 
O=c1cc(-c2ccc(O)cc2)oc2cc(O)cc(O)c12 [apigenin] |  |  | neither compound showed significant selectivity | 
O=C1NC(=S)S/C1=C\c1ccc(-c2cccc(C(F)(F)F)c2)o1 [Compound 35] | > 100 | 81.7 ± 9 |  | 
O=C1NC(=S)S/C1=C\c1cc2cc3c(cc2nc1Cl)OCO3 [Compound 30] | 20.9 | 70.3 ± 40.7 |  | 
Cc1ccc(-c2ccc(/C=C3\SC(=S)N(C)C3=O)cc2)cc1 [Compound 43] | 48.2 | 29 ± 18.8 |  | 
COc1ccc(-c2ccc(/C=C3\SC(=S)N(C)C3=O)cc2)cc1 [Compound 24] | > 100 | 90.1 ± 3.9 |  | 
O=C1NC(=S)S/C1=C\c1ccccc1C(F)(F)F [Compound 41] | > 100 | 81.6 ± 2.4 |  | 
O=C1NC(=S)S/C1=C\c1ccccc1OC(F)(F)F [Compound 42] | > 100 | 87.1 ± 3.4 |  | 
O=C1NC(=S)S/C1=C\c1ccc2c(c1)OCCO2 [Compound 28] | > 100 | 93.9 ± 6.9 |  | 
